Laboratory results from patent publication US10786525B2, “Method for treating haemorrhage, shock and brain injury” (priority 2013, dated 2020).

Legend:
[1] = test system: isolated guinea-pig mesenteric artery; assay: Pressure myograph relaxation of AVP-constricted mesenteric artery (Example 4); details: for relaxation of intact artery: 0.001 to 1 mM, luminal or abluminal; for abluminal versus luminal relaxation: adenosine: at 10 μM and 100 μM
Protocol: Male guinea pigs (250-300 g) were anesthetised and placed in a cradle and the abdomen opened. Second order mesenteric artery branches were isolated and mounted in a pressure myograph (see FIG. 4) under constant pressure of 60 mmHg and perfusion (luminal flow) of 100 uL/min with Krebs-Henseleit buffer (37° C.). Artery diameter was continuously measured using videomicroscopy (see FIG. 4). For the relaxation/vasodilation experiments arteries were equilibrated and then constricted with 10^−8 M arginine vasopressin (AVP). Adenosine, lidocaine or adenosine-lidocaine together were administered 2) luminally and 2) abluminally and concentration curves were obtained. Stock solutions of adenosine and lidocaine alone or adenosine-lidocaine combined were made in deionized water to 20 mM. A range of volumes were pipetted to provide contact concentrations with the vessel lumen or outer wall that ranged from 0.001 to 1 mM. At the end of experiments, arteries were dilated using calcium-free solution to obtain 100% relaxation. A number of arteries were denuded by introducing 5 ml air into the lumen with flow rate 1000 μl/min. The air outflow was then clamped until the intraluminal pressure reached 70 mmHg, flow rate was reduced to 2 μl/min and the vessel remained pressurized for 10 minutes

[2] = oral and/or intravenous 10, 25, 50, and 100 mg/kg; cited from earlier work

Row | Structure (SMILES) | artery diameter in the presence of endothelium [1] | relaxation of intact artery [1] | abluminal versus luminal relaxation [1] | relaxation when endothelium was absent ([1]; denuded) | safety in humans [2] | relaxation with or without intact endothelium [1]
1 | CCN(CC)CC(=O)Nc1c(C)cccc1C [lidocaine] | did not significantly change mesenteric artery diameter | failed to produce relaxation | no significant difference | relaxed the artery | – | –
2 | NC(=O)c1ncn([C@@H]2O[C@H](CO)[C@@H](O)[C@H]2O)c1N [Acadesine, 5-amino-4-imidazole carboxamide ribonucleoside] | – | – | – | – | safe in humans | –
3 | Nc1ncnc2c1ncn2[C@@H]1O[C@H](CO)[C@@H](O)[C@H]1O [adenosine] | – | increased relaxation | significantly more relaxation | – | – | relaxed the mesenteric artery in a dose dependent manner
